The record followed here is ChEMBL document CHEMBL3397005, “Synthesis and antiproliferative activity of novel polynuclear heterocyclic compounds derived from 2,3-diaminophenazine” (Eur J Med Chem, 2015).

For test [1], the system named is A549. The test can be described thus: Antiproliferative activity against human A549 cells. The class given is functional, cell-based.
Test [2] relates to HCT-116. Briefly: (§1) Antiproliferative activity against human HCT116 cells. The class given is functional, cell-based.
Test [3] in a line: as §1. Type of test: functional, cell-based. The following applies: HCT-116.
The test system of test [4] is A549. The test can be described thus: Inhibition of tyrosine kinase in human A549 cells at IC50 after 24 hrs by ELISA relative to control. The class given is cell-based. A general note: An ELISA detects its analyte on a solid surface through an enzyme-linked reagent.
Test [5] deals with HCT-116. The test can be described thus: Inhibition of tyrosine kinase in human HCT116 cells at IC50 after 24 hrs by ELISA relative to control. The class given is cell-based.

Molecules are shown by their SMILES. In brackets after ≈: the same amount, converted by molar mass. Activity calls are given as the source filed them. The rule behind the calls is not given here.

As to `C(=C\c1nc2cc3nc4ccccc4nc3cc2[nH]1)/c1ccccc1`, the result with A549 [1] and in the test on HCT-116 [2] was inactive.
Consider `O=C(Nc1cc2nc3ccccc3nc2cc1NC(=O)c1ccccc1)c1ccccc1`, for which the values for the IC50 (in the test on A549 [1]; in test [3]) were 23.6 mg/L (≈ 56.4 µM) and 17.5 mg/L (≈ 41.8 µM), respectively. Moreover, the values for the inhibition with A549 [4] and in the test with HCT-116 [5] were 1% and 0.5%, respectively.
The like results for `O=c1oc(=O)c2[nH]c3cc4nc5ccccc5nc4cc3[nH]c1=2` were, in that order, 27.6 mg/L (≈ 90.7 µM), 14.6 mg/L (≈ 48 µM), 2% and 0.4%.
For `c1ccc(-c2nc3cc4nc5ccccc5nc4cc3[nH]2)cc1`, the outcome in the test with A549 [1] and with HCT-116 [2] was inactive.
For the compound `CC1(C)CC(=O)C(/N=N/c2cc3nc4ccccc4nc3cc2N)C(=O)C1`, the figures for the IC50 (in the test with A549 [1]; in test [3]) were 22.3 mg/L (≈ 61.7 µM) and 13.9 mg/L (≈ 38.5 µM), respectively. In addition, the inhibition (in general, the change of the read-out against control, counted positive when it falls) with A549 [4] is 2%; with HCT-116 [5], 0.6%.
With `CCOC(=O)c1nn(-c2ccccc2)c2nc3cc4nc5ccccc5nc4cc3n12`, the concentration for half-maximal inhibition (IC50) (commonly the concentration needed to halve the response being measured) in the test with A549 [1] stood at 21 mg/L (≈ 51.4 µM); in test [3], 11.2 mg/L (≈ 27.4 µM). Moreover, the results for the inhibition with A549 [4] and in the test on HCT-116 [5] were 11% and 4%, respectively.
Take `CCOC(=O)c1nn(-c2ccc(Cl)cc2)c2nc3cc4nc5ccccc5nc4cc3n12`: the half-inhibitory concentration (IC50) is 17.6 mg/L (≈ 39.7 µM) with A549 [1] and 8.75 mg/L (≈ 19.8 µM) in test [3]. Further, the inhibition with A549 [4] worked out at 50%; in the test on HCT-116 [5], 37%.
Taken in the same sequence, the figures for `Clc1cccc(-c2nc3cc4nc5ccccc5nc4cc3[nH]2)c1` were 13.8 mg/L (≈ 41.7 µM), 7.9 mg/L (≈ 23.9 µM), 15% and 17%.
The like results for `S=c1[nH]c2cc3nc4ccccc4nc3cc2[nH]1` were, in that order, 7.7 mg/L (≈ 30.5 µM), 4.4 mg/L (≈ 17.4 µM), 86% and 85%.
Turning to `c1ccc2nc3cc4[nH]cnc4cc3nc2c1`, the half-maximal inhibitory concentration (IC50) in the test on A549 [1] was found to be 21.7 mg/L (≈ 98.5 µM); in test [3], 11.4 mg/L (≈ 51.8 µM). Also, the inhibition in the test on A549 [4] worked out at 5%; in the test on HCT-116 [5], 3%.
For the compound `CCOC(=O)/C(=N/Nc1ccccc1)Nc1cc2nc3ccccc3nc2cc1N`, the result with A549 [1] and in the test on HCT-116 [2] was inactive.
For `CSc1nc2cc3nc4ccccc4nc3cc2[nH]1`, the figures for the IC50 (in the test on A549 [1]; in test [3]) were 8.4 mg/L (≈ 31.5 µM) and 5.2 mg/L (≈ 19.5 µM), respectively. For the same compound, the values for the inhibition with A549 [4] and with HCT-116 [5] were 85% and 84%, respectively.
Turning to `O=c1[nH]c2cc3nc4ccccc4nc3cc2[nH]/c1=N/Nc1ccccc1`, the outcome in the test on A549 [1] and with HCT-116 [2] was inactive.
As to `Nc1cc2nc3ccccc3nc2cc1/N=N/C1C(=O)ON=C1c1ccccc1` (stereo unspecified), the IC50 was determined as 9.8 mg/L (≈ 25.6 µM) in the test on A549 [1] and 6.8 mg/L (≈ 17.8 µM) in test [3]. The inhibition came out at 72% in the test on A549 [4] and 68% in the test on HCT-116 [5].
As to `c1ccc2nc3c(nc2c1)Nc1cc2nc4ccccc4nc2cc1N3`, the result in the test on A549 [1] and with HCT-116 [2] was inactive.
Take `CC1CC(=O)Nc2cc3nc4ccccc4nc3cc2N1` (stereo unspecified): the result with A549 [1] and in the test on HCT-116 [2] was inactive.
For the compound `O=c1[nH]c2cc3nc4ccccc4nc3cc2[nH]c1=O`, the result with A549 [1] and in the test with HCT-116 [2] was inactive.
Regarding `CCOC(=O)c1nn(-c2ccc(C)cc2)c2nc3cc4nc5ccccc5nc4cc3n12`, the IC50 with A549 [1] was 19 mg/L (≈ 45 µM); in test [3], 9.6 mg/L (≈ 22.7 µM). Moreover, the values for the inhibition in the test on A549 [4] and in the test with HCT-116 [5] were 14% and 18%, respectively.
The like results for `CCCc1nc2cc3nc4ccccc4nc3cc2[nH]1` were, in that order, 8.4 mg/L (≈ 32 µM), 6.5 mg/L (≈ 24.8 µM), 70% and 64%.
Taken in the same sequence, the figures for `Nc1cc2nc3ccccc3nc2cc1N` were 8.8 mg/L (≈ 41.9 µM), 6 mg/L (≈ 28.5 µM), 80% and 72%.
`O=C1CC(=O)Nc2cc3nc4ccccc4nc3cc2N1`: the outcome in the test on A549 [1] and with HCT-116 [2] was inactive.
Regarding `CC1=NN(c2ccccc2)C(=O)C1/N=N/c1cc2nc3ccccc3nc2cc1N` (stereo unspecified), the half-maximal inhibitory concentration (IC50) came to 22 mg/L (≈ 55.6 µM) in the test on A549 [1] and 11.9 mg/L (≈ 30.1 µM) in test [3]. The inhibition in the test with A549 [4] was determined as 4%; with HCT-116 [5], 2%.
Taken in the same sequence, the figures for `Clc1ccc(-c2nc3cc4nc5ccccc5nc4cc3[nH]2)c(Cl)c1` were 11.5 mg/L (≈ 31.5 µM), 6.8 mg/L (≈ 18.6 µM), 16% and 12%.
